Source: patent US11034650B2, “Compounds useful for treating a Mannheimia haemolytica or Histophilus somni infection” (Intervet Inc., priority 2016, dated 2021)
Values after ≈ are worked out from the molar mass of the structure shown.

Tests used:
Format in all cases: cell-based
[1] = test system: Mannheimia haemolytica MH 10720 (154, BRD field isolate); assay: MIC, broth-microdilution (CLSI VET01-A4), strain MH 10720; conditions: Mannheimia haemolytica strain MH 10720, broth-microdilution; unit assumed
Method in brief: (§1)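 Test articles are arrayed as a twofold dilution range in microdilution trays. Wells are scored by naked eye, and the MIC is taken where turbidity first disappears.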

[2] = test system: Pasteurella multocida PM 6391 (ATCC 43137, reference strain); assay: MIC, broth-microdilution (CLSI VET01-A4), strain PM 6391; conditions: Pasteurella multocida strain PM 6391, broth-microdilution; unit assumed
Method in brief: as §1

[3] = test system: Pasteurella multocida PM 10775 (080130003051, BRD field isolate); assay: MIC, broth-microdilution (CLSI VET01-A4), strain PM 10775; conditions: Pasteurella multocida strain PM 10775, broth-microdilution; unit assumed
Method in brief: as §1

[4] = test system: Mannheimia haemolytica MH 13093 (XB0472-6014.1, BRD field isolate); assay: MIC, broth-microdilution (CLSI VET01-A4), strain MH 13093; conditions: Mannheimia haemolytica strain MH 13093, broth-microdilution; unit assumed
Method in brief: as §1

[5] = test system: Mannheimia haemolytica MH 6357 (M7/2, reference strain, cattle infection strain); assay: MIC, broth-microdilution (CLSI VET01-A4), strain MH 6357; conditions: Mannheimia haemolytica strain MH 6357, broth-microdilution; unit assumed
Method in brief: as §1

[6] = test system: Pasteurella multocida PM 6267 (P 2225 (L386), reference strain, mouse infection strain); assay: MIC, broth-microdilution (CLSI VET01-A4), strain PM 6267; conditions: Pasteurella multocida strain PM 6267, broth-microdilution; unit assumed
Method in brief: as §1

[7] = test system: Mannheimia haemolytica MH 12587 (1071, BRD field isolate, macrolide-resistance: erm+, E+); assay: MIC, broth-microdilution (CLSI VET01-A4), strain MH 12587; conditions: Mannheimia haemolytica strain MH 12587, broth-microdilution; unit assumed
Method in brief: as §1

[8] = test system: Mannheimia haemolytica MH 13065 (XB0446-6003.9, BRD field isolate); assay: MIC, broth-microdilution (CLSI VET01-A4), strain MH 13065; conditions: Mannheimia haemolytica strain MH 13065, broth-microdilution; unit assumed
Method in brief: as §1

[9] = test system: Pasteurella multocida PM 12080 (IV102277-0093, BRD field isolate); assay: MIC, broth-microdilution (CLSI VET01-A4), strain PM 12080; conditions: Pasteurella multocida strain PM 12080, broth-microdilution; unit assumed
Method in brief: as §1

[10] = test system: Mannheimia haemolytica MH 6374 (ATCC 33396, reference strain); assay: MIC, broth-microdilution (CLSI VET01-A4), strain MH 6374; conditions: Mannheimia haemolytica strain MH 6374, broth-microdilution; unit assumed
Method in brief: as §1

SMILES | MIC PM 6391 [2] [µg/mL] | MIC PM 10775 [3] [µg/mL] | MIC PM 6267 [6] [µg/mL] | MIC PM 12080 [9] [µg/mL] | MIC MH 10720 [1] [µg/mL] | MIC MH 13093 [4] [µg/mL] | MIC MH 6357 [5] [µg/mL] | MIC MH 12587 [7] [µg/mL] | MIC MH 13065 [8] [µg/mL] | MIC MH 6374 [10] [µg/mL]
N#CCNCc1ccc(C#Cc2ccc(C(=O)N[C@@H](CO)C(=O)NO)cc2)cc1 [Compound 216] | 0.2 (≈ 0.51 µM) | ≤ 0.1 | ≤ 0.1 | 0.2 (≈ 0.51 µM) | 0.8 (≈ 2.04 µM) | 3.1 (≈ 7.9 µM) | 1.6 (≈ 4.08 µM) | 3.1 (≈ 7.9 µM) | 1.6 (≈ 4.08 µM) | 3.1 (≈ 7.9 µM)
COCCCNCc1ccc(C#Cc2ccc(C(=O)NC(C(=O)NO)C(C)(C)[N+](=O)[O-])cc2)cc1 (centres unmarked) [Compound 285] | 1.6 (≈ 3.32 µM) | ≤ 0.1 | 3.1 (≈ 6.42 µM) | 0.8 (≈ 1.66 µM) | ≤ 0.1 | 3.1 (≈ 6.42 µM) | 1.6 (≈ 3.32 µM) | 6.3 (≈ 13.1 µM) | 1.6 (≈ 3.32 µM) | 3.1 (≈ 6.42 µM)
COc1ccc(CNCc2ccc(C#Cc3ccc(C(=O)N[C@H](C(=O)NO)C(C)(C)S(C)(=O)=O)cc3)cc2)cc1 [Compound 260] | ≤ 0.1 | ≤ 0.1 | ≤ 0.1 | ≤ 0.1 | ≤ 0.1 | 0.8 (≈ 1.42 µM) | 1.6 (≈ 2.84 µM) | 1.6 (≈ 2.84 µM) | 0.4 (≈ 0.71 µM) | 0.4 (≈ 0.71 µM)
Cc1ccc(CNCc2ccc(C#Cc3ccc(C(=O)N[C@H](C(=O)NO)C(C)C)cc3)cc2)cc1 [Compound 172] | 0.4 (≈ 0.852 µM) | ≤ 0.1 | 0.2 (≈ 0.426 µM) | 0.4 (≈ 0.852 µM) | 0.4 (≈ 0.852 µM) | 0.8 (≈ 1.7 µM) | 0.4 (≈ 0.852 µM) | 1.6 (≈ 3.41 µM) | 0.8 (≈ 1.7 µM) | 0.8 (≈ 1.7 µM)
CC(C)[C@H](NC(=O)c1ccc(C#Cc2ccc(CNCc3cccs3)cc2)cc1)C(=O)NO [Compound 171] | 0.2 (≈ 0.433 µM) | ≤ 0.1 | ≤ 0.1 | ≤ 0.1 | ≤ 0.1 | 0.4 (≈ 0.867 µM) | 0.2 (≈ 0.433 µM) | 0.8 (≈ 1.73 µM) | 0.2 (≈ 0.433 µM) | 0.4 (≈ 0.867 µM)
CSC(C)(C)[C@H](NC(=O)c1ccc(C#Cc2ccc(CNCc3ccccc3)cc2)cc1)C(=O)NO [Compound 239] | 0.4 (≈ 0.797 µM) | ≤ 0.1 | 0.2 (≈ 0.399 µM) | 0.4 (≈ 0.797 µM) | 0.2 (≈ 0.399 µM) | 0.8 (≈ 1.59 µM) | 0.8 (≈ 1.59 µM) | 1.6 (≈ 3.19 µM) | 0.8 (≈ 1.59 µM) | 1.6 (≈ 3.19 µM)
CC[C@H](C)[C@H](NC(=O)c1ccc(C#Cc2ccc(CNCc3ccco3)cc2)cc1)C(=O)NO [Compound 181] | 0.8 (≈ 1.74 µM) | ≤ 0.1 | 0.4 (≈ 0.87 µM) | 0.4 (≈ 0.87 µM) | ≤ 0.1 | 0.8 (≈ 1.74 µM) | 0.4 (≈ 0.87 µM) | 1.6 (≈ 3.48 µM) | 0.8 (≈ 1.74 µM) | 0.8 (≈ 1.74 µM)

Further lines, with some results ahead:

MIC PM 6391 [2] [µg/mL] | MIC PM 10775 [3] [µg/mL] | MIC PM 6267 [6] [µg/mL] | MIC PM 12080 [9] [µg/mL] | SMILES | MIC MH 10720 [1] [µg/mL] | MIC MH 13093 [4] [µg/mL] | MIC MH 6357 [5] [µg/mL] | MIC MH 12587 [7] [µg/mL] | MIC MH 13065 [8] [µg/mL] | MIC MH 6374 [10] [µg/mL]
3.1 (≈ 6.53 µM) | 0.4 (≈ 0.843 µM) | 1.6 (≈ 3.37 µM) | 1.6 (≈ 3.37 µM) | CC(C)(O)[C@H](NC(=O)c1ccc(C#Cc2ccc(CNCc3ncccn3)nc2)cc1)C(=O)NO [Compound 363] | 3.1 (≈ 6.53 µM) | 25 (≈ 52.7 µM) | 6.3 (≈ 13.3 µM) | 25 (≈ 52.7 µM) | 12.5 (≈ 26.3 µM) | 6.3 (≈ 13.3 µM)
0.4 (≈ 0.801 µM) | ≤ 0.1 | 1.6 (≈ 3.2 µM) | 0.4 (≈ 0.801 µM) | CSC(C)(C)[C@H](NC(=O)c1ccc(C#Cc2ccc(CNCC(F)(F)F)s2)cc1)C(=O)NO [Compound 309] | ≤ 0.1 | 1.6 (≈ 3.2 µM) | 0.8 (≈ 1.6 µM) | 1.6 (≈ 3.2 µM) | 0.8 (≈ 1.6 µM) | 0.8 (≈ 1.6 µM)
0.4 (≈ 0.82 µM) | ≤ 0.1 | 1.6 (≈ 3.28 µM) | 0.4 (≈ 0.82 µM) | CSC(C)(C)[C@H](NC(=O)c1ccc(C#Cc2ccc(CN3CCOCC3)s2)cc1)C(=O)NO [Compound 303] | 0.4 (≈ 0.82 µM) | 1.6 (≈ 3.28 µM) | 0.2 (≈ 0.41 µM) | 1.6 (≈ 3.28 µM) | 1.6 (≈ 3.28 µM) | 1.6 (≈ 3.28 µM)
0.4 (≈ 0.838 µM) | ≤ 0.1 | 0.4 (≈ 0.838 µM) | 0.2 (≈ 0.419 µM) | Cc1cnc(CNCc2ccc(C#Cc3ccc(C(=O)N[C@H](C(=O)NO)C(C)(C)O)cc3)cn2)o1 [Compound 334] | ≤ 0.1 | 1.6 (≈ 3.35 µM) | 0.4 (≈ 0.838 µM) | 1.6 (≈ 3.35 µM) | 0.8 (≈ 1.68 µM) | 0.4 (≈ 0.838 µM)
